In patent publication US20070048372A1, “Method for treating non-inflammatory osteoarthritic pain” (SRZ Properties, Inc., priority 2005, published 2007):
“Also recorded” adds a separate entry of the source.

How the values were obtained:
[1] = tested on: rat formalin paw test (late phase); assay: Rat formalin paw test (late phase): number of flinches and licking time; assay type: in vivo, rat (Rj: Wistar (Han))
Method: Rats were given an intraplantar injection of 5% formalin (50 μl) into the posterior left paw. This treatment induces a recognizable flinching and licking response of the affected paw in control animals. The number of flinches was counted for 15 minutes, beginning 20 minutes after injection of formalin. The time spent licking the affected paw was also recorded.
Male Rj: Wistar (Han) rats, 10 per group, weighing 100-130 g at the beginning of the experiments were studied per group. The test was performed blind.
Lacosamide (20 mg/kg), gabapentin (50 and 100 mg/kg), combinations of lacosamide (20 mg/kg) with gabapentin (50 and 100 mg/kg), and vehicle were administered i.p. 10 minutes before injection of formalin.
Lacosamide (10 and 20 mg/kg), morphine (2 and 4 mg/kg), combinations of lacosamide (10 and 20 mg/kg) with morphine (2 and 4 mg/kg), and vehicle were administered i.p. 10 minutes before injection of formalin.
Lacosamide (10 mg/kg), duloxetine (8 mg/kg), a combination of lacosamide (10 mg/kg) with duloxetine (8 mg/kg), and vehicle were administered i.p. 10 minutes before injection of formalin.
Lacosamide (10 and 20 mg/kg), memantine (4 and 8 mg/kg), combinations of lacosamide (10 and 20 mg/kg) with memantine (4 and 8 mg/kg), and vehicle were administered i.p. 10 minutes before injection of formalin.
Lacosamide (10 and 20 mg/kg), naproxen (8 and 16 mg/kg), combinations of lacosamide (10 and 20 mg/kg) with […] (8 and 16 mg/kg), and vehicle were administered i.p. 10 minutes before injection of formalin. Morphine (8 mg/kg) was included as a comparative treatment.

[2] = tested on: muscle pressure hyperalgesia induced by TNF; assay: TNF-induced muscle pressure hyperalgesia (Randall-Selitto, withdrawal threshold to muscle pressure); assay type: in vivo, rat (Sprague Dawley); settings: for reversal of muscular mechanical hyperalgesia (withdrawal threshold to muscle pressure): 18 h after TNF i.m., 30 to 60 minutes after drug; for full reversal of the muscle hyperalgesia: doses tested: pregabalin 30 and 100 mg/kg, gabapentin 100 mg/kg i.p.
Method: (§1) Adult male Sprague Dawley rats with a body weight of 250 g to 300 g were used (supplier: Charles River, Sulzfeld, Germany). Animals were group-housed (3 animals per cage) and maintained in a room with controlled temperature (21-22° C.) and a reversed light-dark cycle (12 h/12 h) with food and water available ad libitum. All experiments were approved by the Bavarian State animal experimentation committee and carried out in accordance with its regulations.
(§2) Recombinant rat tumor necrosis factor alpha (herein referred to as TNF) was obtained from R&D Systems, Minneapolis, Minn., U.S.A. TNF was diluted in 0.9% NaCl and used in a concentration of 1 μg in 50 μl. Injections were performed in short halothane narcosis with a 30 g needle bilaterally into the gastrocnemius or into the biceps brachii muscle. All rats were used to the behavioral tests before injections and baseline values were recorded over three test days.
Mechanical withdrawal thresholds to muscle pressure were measured with an analgesimeter (Ugo Basile, Comerio, Italy). The rat was allowed to crawl into a sock which helps the rat to relax. The hind limbs were positioned such that an increasing pressure could be applied onto the gastrocnemius muscle (maximum 250 g). The pressure needed to elicit withdrawal was recorded. Means of 3 trials for each hind limb were calculated (interstimulus interval of >30 sec). Only animals with a significant TNF effect were included for further analysis.
Rats were injected with TNF into the gastrocnemius muscle at 2 pm. Eighteen hours later, rats were tested for pressure hyperalgesia pre- and post-administration of the test drug. Rats were tested for pressure hyperalgesia 30 to 60 minutes after drug administration.
(§3) The rats, initially 10 per group, were treated with either 3, 10 or 30 mg/kg lacosamide, 2 mg/kg metamizol, 30 or 100 mg/kg pregabalin, 100 mg/kg gabapentin, or the NaCl vehicle, i.p. (intraperitoneally). Volume of i.p. injections was 0.5 ml. A pilot study was performed to confirm that i.m. (intramuscular) injection of 1 μg TNF into the gastrocnemius muscle was sufficient to induce pressure hyperalgesia.
(§4) Data are shown in graphs displaying means and standard errors of the means (SEM). Pre- and post-treatment data were compared using ANOVA (analysis of variance) and a Tukey post hoc test. Means of treatment groups were compared using a one-way ANOVA and Dunnett's post hoc test. Maximal possible effects (MPE) were calculated for all types of treatment.

[3] = tested on: biceps muscle grip strength after TNF-induced muscle pain; assay: Biceps muscle grip strength after TNF-induced muscle pain; assay type: in vivo, rat (Sprague Dawley); settings: for reversal of TNF-induced reduction of grip strength: 6 h after TNF i.m., 30 to 60 minutes after drug
Method: as §1, §2
Grip strength of the forelimbs was tested with a digital grip force meter (DFIS series, Chatillon, Greensboro, NC, U.S.A.). The rat was positioned to grab the grid with the forelimbs and was gently pulled so that the grip strength could be recorded. Means of three trials were calculated. The effect of the TNF treatment was calculated for each animal separately and only animals with a significant TNF effect were included for further analysis.
Rats were injected with TNF into the biceps brachii muscle at 8 am. Six hours later, grip strength of the forelimbs was tested with a digital grip force meter. Test drug was administered, and grip strength was again tested after 30 to 60 minutes.
as §3, §4

[4] = tested on: monosodium iodoacetate-induced tactile allodynia; assay: Monosodium iodoacetate-induced tactile allodynia (von Frey filaments); assay type: in vivo, rat (Wistar); settings: 60 minutes before test
[5] = tested on: monosodium iodoacetate-induced mechanical hyperalgesia; assay: Monosodium iodoacetate-induced mechanical hyperalgesia (Randall-Selitto paw pressure); assay type: in vivo, rat (Wistar); settings: for paw pressure withdrawal threshold compared to iodoacetate/vehicle treated animals (mechanical hyperalgesia): day 3; for mechanical hyperalgesia (paw pressure withdrawal threshold): day 7
[6] = Example 3, 100 mg/kg i.p. alone
[7] = Example 4, 2 and 4 mg/kg i.p. alone, did not reach statistical significance

## CNCC[C@H](Oc1cccc2ccccc12)c1cccs1 [Duloxetine]
[1]; Example 5, 8 mg/kg i.p. alone
  Licking time % change (a) compared with vehicle control: −26% (a)
  Licking time (seconds) mean ± SEM: 195.5 ± 45.0 NS (a) seconds
  No. of flinches % change (a) compared with vehicle control: −1% (a)
  No. of flinches mean ± SEM: 149.6 ± 27.3 NS (a)
  effects on the number of flinches and the time spent licking: had no clear effects

## NCC1(CC(=O)O)CCCCC1 [Gabapentin]
[2]; 100 mg/kg i.p.
  MPE (maximal possible effect) on muscle pressure hyperalgesia, compared with vehicle: significantly different from vehicle
  reversal of muscular mechanical hyperalgesia (withdrawal threshold to muscle pressure): significant reversal
[2]
  full reversal of the muscle hyperalgesia: Neither pregabalin nor gabapentin led to a full reversal
[1]; Example 3, 50 mg/kg i.p. alone
  Licking time % change (a) compared with vehicle control: −28% (a)
  Licking time (seconds) mean ± SEM: 161.0 ± 27.3 NS (a) seconds
  No. of flinches % change (a) compared with vehicle control: −24% (a)
  No. of flinches mean ± SEM: 97.4 ± 23.8 NS (a)
  decrease of the number of flinches as compared with vehicle controls: 24%
  decrease of the time spent licking as compared with vehicle controls: 28%
[1]; [6]
  Licking time % change (a) compared with vehicle control: −60% (a)
  Licking time (seconds) mean ± SEM: 90.0 ± 22.5 (a) seconds
  No. of flinches % change (a) compared with vehicle control: −31% (a)
  No. of flinches mean ± SEM: 88.1 ± 19.4 NS (a)
  decrease of the number of flinches as compared with vehicle controls: 31%
  decrease of the time spent licking as compared with vehicle controls: 60%
[3]; 100 mg/kg i.p.
  MPE (maximal possible effect) on biceps muscle grip strength, compared with vehicle: significantly different from vehicle
  reversal of TNF-induced reduction of grip strength: significant reversal; also recorded: improved grip strength

## CC12CC3CC(C)(C1)CC(N)(C3)C2 [Memantine]
[1]; Example 6, 4 mg/kg i.p. alone
  Licking time % change (a) compared with vehicle control: +25% (a)
  Licking time (seconds) mean ± SEM: 219.9 ± 21.8 NS (a) seconds
  No. of flinches % change (a) compared with vehicle control: −3% (a)
  No. of flinches mean ± SEM: 161.4 ± 26.3 NS (a)
  increase of the time spent licking as compared with vehicle controls: 25%
[1]; Example 6, 8 mg/kg i.p. alone
  Licking time % change (a) compared with vehicle control: +35% (a)
  Licking time (seconds) mean ± SEM: 237.3 ± 18.9 (a) seconds
  No. of flinches % change (a) compared with vehicle control: −20% (a)
  No. of flinches mean ± SEM: 132.3 ± 24.6 NS (a)
  increase of the time spent licking as compared with vehicle controls: 35%
[1]; Example 6, 4 and 8 mg/kg i.p. alone
  effect on the number of flinches as compared with vehicle controls: did not clearly affect

## CN1CC[C@]23c4c5ccc(O)c4O[C@H]2[C@@H](O)C=C[C@H]3[C@H]1C5 [Morphine]
[4]; day 3, 3 mg/kg s.c.
  tactile allodynia of iodoacetate-treated rats (von Frey): improved tactile allodynia
[4]; day 7, 3 mg/kg s.c.
  tactile allodynia of iodoacetate-treated rats (von Frey): improved tactile allodynia
[4]; day 14, 3 mg/kg s.c.
  tactile allodynia of iodoacetate-treated rats (von Frey): not on day 14
[1]; Example 4, 2 mg/kg i.p. alone
  Licking time % change (a) compared with vehicle control: −1% (a)
  Licking time (seconds) mean ± SEM: 289.3 ± 30.7 NS (a) seconds
  No. of flinches % change (a) compared with vehicle control: −7% (a)
  No. of flinches mean ± SEM: 139.5 ± 25.3 NS (a)
[1]; Example 4, 4 mg/kg i.p. alone
  Licking time % change (a) compared with vehicle control: −20% (a)
  Licking time (seconds) mean ± SEM: 234.9 ± 37.3 NS (a) seconds
  No. of flinches % change (a) compared with vehicle control: −37% (a)
  No. of flinches mean ± SEM: 94.3 ± 21.1 NS (a)
[1]; [7]
  effect on the number of flinches as compared with vehicle controls: dose-dependently decreased
  effect on the time spent licking as compared with vehicle controls: dose-dependently decreased
[1]; Example 7, 8 mg/kg i.p. alone
  Licking time % change (a) compared with vehicle control: −100% (a)
  Licking time (seconds) mean ± SEM: 0.0 ± 0.0 (a) seconds
  No. of flinches % change (a) compared with vehicle control: −100% (a)
  No. of flinches mean ± SEM: 0.2 ± 0.1 (a)
  effect on flinching and the time spent licking as compared with vehicle controls: eliminated flinching and the time spent licking
[5]; 3 mg/kg s.c.
  paw pressure withdrawal threshold compared to iodoacetate/vehicle treated animals (mechanical hyperalgesia): increase in paw pressure withdrawal threshold
  mechanical hyperalgesia (paw pressure withdrawal threshold): reduced mechanical hyperalgesia

## COc1ccc2cc([C@H](C)C(=O)O)ccc2c1 [Naproxen]
[1]; Example 7, 8 mg/kg i.p. alone
  Licking time % change (a) compared with vehicle control: +16% (a)
  Licking time (seconds) mean ± SEM: 222.1 ± 21.1 NS (a) seconds
  No. of flinches % change (a) compared with vehicle control: +30% (a)
  No. of flinches mean ± SEM: 148.0 ± 35.5 NS (a)
[1]; Example 7, 16 mg/kg i.p. alone
  Licking time % change (a) compared with vehicle control: −1% (a)
  Licking time (seconds) mean ± SEM: 190.1 ± 25.4 NS (a) seconds
  No. of flinches % change (a) compared with vehicle control: +2% (a)
  No. of flinches mean ± SEM: 116.6 ± 20.7 NS (a)
[1]; Example 7, 8 and 16 mg/kg i.p. alone
  effect on the number of flinches or the time spent licking as compared with vehicle controls: did not clearly affect

## O=C(O)Cc1ccccc1Nc1c(Cl)cccc1Cl [diclofenac]
[4]; day 3, 30 mg/kg s.c.
  tactile allodynia of iodoacetate-treated rats (von Frey): had no effect
[4]; day 7, 30 mg/kg s.c.
  tactile allodynia of iodoacetate-treated rats (von Frey): had no effect
[4]; day 14, 30 mg/kg s.c.
  tactile allodynia of iodoacetate-treated rats (von Frey): had no effect
[5]; 30 mg/kg s.c.
  paw pressure withdrawal threshold compared to iodoacetate/vehicle treated animals (mechanical hyperalgesia): increase in paw pressure withdrawal threshold
  mechanical hyperalgesia (paw pressure withdrawal threshold): reduced mechanical hyperalgesia

## Cc1c(N(C)CS(=O)(=O)[O-])c(=O)n(-c2ccccc2)n1C.[Na+] [metamizol]
[2]; 2 mg/kg i.p.
  MPE (maximal possible effect) on muscle pressure hyperalgesia, compared with vehicle: significantly different from vehicle
  reversal of muscular mechanical hyperalgesia (withdrawal threshold to muscle pressure): complete reversal
[3]; 2 mg/kg i.p.
  MPE (maximal possible effect) on biceps muscle grip strength, compared with vehicle: significantly different from vehicle
  reversal of TNF-induced reduction of grip strength: significant reversal

## CC(C)C[C@H](CN)CC(=O)O [pregabalin]
[2]; 30 mg/kg i.p.
  MPE (maximal possible effect) on muscle pressure hyperalgesia, compared with vehicle: significantly different from vehicle
  reversal of muscular mechanical hyperalgesia (withdrawal threshold to muscle pressure): significant reversal
[2]; 100 mg/kg i.p.
  MPE (maximal possible effect) on muscle pressure hyperalgesia, compared with vehicle: significantly different from vehicle
  reversal of muscular mechanical hyperalgesia (withdrawal threshold to muscle pressure): significant reversal
[2]
  full reversal of the muscle hyperalgesia: Neither pregabalin nor gabapentin led to a full reversal
[3]; 100 mg/kg i.p.
  MPE (maximal possible effect) on biceps muscle grip strength, compared with vehicle: significantly different from vehicle
  reversal of TNF-induced reduction of grip strength: significant reversal; also recorded: improved grip strength
